Earlier results in publication PMC10025373, “Red ginseng dietary fiber promotes probiotic properties of Lactiplantibacillus plantarum and alters bacterial metabolism” (Frontiers in Microbiology, 2023).

How the values were obtained:
[1] = tested on: Staphylococcus aureus; conditions: ref Lens et al., 2016
[2] = tested on: E. coli; conditions: ref Lens et al., 2016
[3] = tested on: actomyosin motor; parameters: method as in Komatsu et al., 2004; conditions: ref Komatsu et al., 2004

| Compound | antimicrobial activity [1] | antimicrobial activity [2] | function of the actomyosin motor [3] |
| --- | --- | --- | --- |
| CCCCOC(C)=O [butyl acetate] | antimicrobial activity | antimicrobial activity | – |
| CCCCCCO [Hexanol] | – | – | modulates the function of the actomyosin motor |
